Measurements: US20230123140A1, “DOSE TREATMENTS OF TAUOPATHIES” (AC Immune SA, priority 2020, published 2023)
Where “and” joins values, the source holds several entries; their conditions need not be identical. Equal values may be shown once.

Experiments:
[1] = Toxicokinetics in the 4-week mouse toxicity study; assay type: in vivo; settings: for AUC(0-t) / Cmax / Tmax: plasma
Experimental: (§1) This study was conducted to evaluate the potential toxicity of ACI-3024 when given daily by oral gavage to CD1 mice for 4 weeks, followed by a 2-week recovery period. Doses of 100, 300 and 1000 mg/kg were administered by p.o. to 10 animals/sex/group daily. The control animals were administered vehicle. The dose volume was 10 mL/kg for all groups.

[2] = CSF concentrations of ACI-3024 in MAD cohort MAD-HV3; assay type: in vivo
Experimental: Methods for measuring the amount of administered compound, such as ACI-3024, in CSF of a subject are well know in the art. As an example, CSF can be drawn by lumbar puncture and content of the administered compound can be analysed by a LC-MS/MS method, among other methods.
Cohorts MAD-HV1 to MAD-HV3 comprised 10 elderly non-Japanese male or female subjects, 8 were treated with ACI-3024 and 2 were being given placebo. Cohort MAD-HV4 comprised 5 non-elderly Japanese subjects (4 treated with ACI-3024 and 1 given placebo) and 5 […] (4 treated with ACI-3024 and 1 given placebo). Only subjects from MAD HV3 cohort underwent CSF samplings to explore the CSF inflammatory markers, CSF PK, and CSF PD of ACI-3024. For all subjects, dosing was on […], inclusive, and a final single dose administration occurred on […]. Dose in cohort MAD HV1 was 500 mg of ACI-3024 or placebo, QD, fasted. Dose in cohorts MAD HV2 and MAD HV4 was 500 mg of ACI-3024 or placebo, BID (“bis in die” ie., twice a day), fed. Dose in cohort MAD HV3 was 1400 mg of ACI-3024 or placebo, QD (“quaque die” (once a day), fed.

[3] = 4-week toxicity study in mice followed by 2 weeks of recovery; assay type: in vivo, mouse; settings: both sexes, CD1, mouse, in vivo, po
Experimental: as §1
(§2) Clinical signs, body weights, food consumption, ophthalmology, clinical pathology were evaluated. For each sex/group, a complete necropsy was conducted on 10 animals at the end of the dosing period and on 6 (only control and high dose groups) surviving animals at end of the recovery period.

[4] = test system: CD1 mice; experiment: as above; assay type: in vivo, mouse; settings: 1000 mg/kg/day p.o., Day 9
Experimental: as §1, §2

[5] = test system: healthy subjects; experiment: First-in-human study, single ascending dose (SAD) part: safety and tolerability; assay type: in vivo; settings: for number of AEs: healthy subjects
From the text: A First-In-Human, Randomized, Placebo-Controlled, Double-Blind, SAD/MAD Study to Assess the Safety, Tolerability, Pharmacokinetics, and Pharmacodynamics of ACI-3024
The objective of the study is to assess the safety, tolerability, pharmacokinetics (PK), and pharmacodynamics (PD) of single ascending doses (SAD) and multiple ascending doses (MAD) of ACI-3024 in a first-in-human, randomized, placebo-controlled, double-blind, sequential SAD/MAD study with open-label food effect and pharmacodynamic assessment arms. The study comprises different parts to be conducted in Healthy Volunteers: • 1) one Single Ascending Dose (SAD) part in which several cohorts are being investigated with single ascending doses of ACI-3024. The food effect is also explored in this part. • 2) one Multiple Ascending Dose (MAD) part in which several cohorts are being investigated with multiple ascending doses of ACI-3024. Each study part is assessing the safety, tolerability, pharmacokinetics and pharmacodynamics of ACI-3024.
This part comprised a single dose, sequential group design. Overall, 40 healthy non-elderly male subjects were enrolled in 5 cohorts (Cohorts S1 to S5), with each cohort consisting of 8 subjects.
No Japanese subjects were enrolled in Cohort S1. For Cohorts S2 through S5, 4 Japanese subjects and 4 non Japanese subjects were enrolled.
In each of Cohorts S1 to S5, 6 subjects (including 3 Japanese subjects in Cohorts S2 through S5) received ACI-3024 and 2 subjects (including 1 Japanese subject in Cohorts S2 through S5) received placebo. All doses were administered in the fasting state in accordance with a randomization schedule on the morning of Day 1, except for subjects in the food-effect cohort (Cohort S4), who were dosed 30 minutes after starting a high-fat breakfast in Treatment Period 2 only. Each subject received only a single dose of ACI-3024 or placebo during the study, except for subjects in the food effect cohort, who received a single dose of ACI-3024 or placebo in the fasting state followed by a single dose of ACI-3024 in the fed state. Thus, subjects in Cohort S4 received either 2 identical doses of ACI-3024 (6 subjects) or 1 dose of placebo and 1 dose of ACI-3024 (2 subjects). Six subjects of Cohort S4 received 750 mg dose of ACI-3024 and 2 subjects received placebo. After a period of wash-up all 8 subjects of Cohort S4 received a fat-breakfast and a 750 mg dose of ACI-3024.
The total duration of study participation for each subject (from Screening through Follow-up visit) was approximately 37 days, except for subjects in the food-effect cohort (Cohort S4), for whom the total duration was up to approximately 44 days.

[6] = test system: Central Nervous System function; experiment: Central nervous system evaluation in mice (functional observation battery); assay type: in vivo, mouse; settings: single oral administration 100, 300 or 750 mg/kg, female CD1 mice
Experimental: This study was conducted to evaluate the potential modifications of central nervous system (CNS) activity by ACI-3024 when given as single dose to CD1 mice.
Doses of 100, 300 and 750 mg/kg were administered by oral gavage to 8 females/group. The control animals were administered vehicle. The dose volume was 10 mL/kg for all groups. Approximately 2, 4, 6 and 24 hours after the treatment, each mouse was subjected to a functional observation battery in order to investigate possible treatment-induced effects on the CNS or in any of its domains: neurologic, autonomic and behavioral.

[7] = both sexes, mouse, Day 28, 300 mg/kg oral, average M/F CD-1 mice
[8] = mouse, Day 28, 300 mg/kg oral, female CD-1 mice
[9] = mouse, Day 28, 300 mg/kg oral, male CD-1 mice

Structure (SMILES): Fc1ccc2c3c([nH]c2c1)CCN(c1ccc2oc(N4CCOCC4)nc2c1)C3 [ACI-3024]
- dose proportionality of plasma exposure ([1]; 100 to 1000 mg/kg): less than dose proportionally
- AUC(0-t) [1, 7]: 353 µg·h/mL
- Cmax [1, 7]: 25800 ng/mL
- Tmax [1, 7]: 4 h
- Tmax ([1]; female, CD1, mouse, oral, females, high-dose group (1000 mg/kg), delayed): 24 h
- sex difference in exposure ([1]; in general, except 300 mg/kg/day on Day 28): higher exposure was observed in females than in males
- AUC(0-t) [1, 8]: 320 µg·h/mL
- Cmax [1, 8]: 23400 ng/mL
- Tmax [1, 8]: 4 h
- AUC(0-t) [1, 9]: 386 µg·h/mL
- Cmax [1, 9]: 28300 ng/mL
- Tmax [1, 9]: 4 h
- accumulation ([1]; repeated administrations, Day 1 vs. Day 28): slight ACI-3024 accumulation
- CSF pre-dose concentrations versus target ([2]; MAD, 1400 mg, target established in animal models): > 30 nM
- Kp ([2]; both sexes, human, CSF, oral, elderly subjects, multiple doses of 1400 mg QD (fed), read-out: CSF concentration as share of the corresponding plasma concentration): 0.003 to 0.015
- dose that would provide sufficient CSF exposure (30 nM) ([2]; extrapolated from 1400 mg CSF data): 300 to 400 mg/day
- pre-dose (Cmin) CSF concentration ([2]; multiple oral doses of 1400 mg, Day 7): 36.4±13.6 ng/mL and 90 nM
- NOAEL at 4 weeks [3]: 300 mg/kg/day
- mortality / premature euthanasia [4]: only one female animal was prematurely euthanized
- SAEs or AEs leading to discontinuation ([5]; SAD cohorts, 25 to 1500 mg): no SAEs or AEs leading to discontinuation from the study
- vital signs, ECG values, physical or neurological examinations ([5]; SAD cohorts, 25 to 1500 mg): no clinically significant observations
- severity of AEs ([5]; SAD cohorts, 25 to 1500 mg (all AEs of the part, placebo included)): mild
- overall safety and tolerability ([5]; SAD study, up to the highest administered dose of 1500 mg): safe and well tolerated
- number of AEs ([5]; single oral dose 25 mg): 2
- number of AEs ([5]; single oral dose 100 mg): 0
- number of AEs ([5]; single oral dose 300 mg): 3
- number of AEs ([5]; single oral dose 750 mg (fed and fasted states)): 6
- number of AEs ([5]; single oral dose 1500 mg): 2
- effect on Central Nervous System function [6]: no effect
